Measured values from patent US20230086007A1, “USE OF DENATONIUM BENZOATE AS A SEED TREATMENT FOR CROPS AS BIRD AND/OR INSECT REPELLENT” (KWS SAAT SE & Co. KGaA, priority 2020, published 2023).
Entries after “also recorded” stand apart in the source; their conditions may differ.

Assays:
[1] = test system: crows; experiment: Field trials on efficacy as a bird repellent, corn seed, plant stand counts; assay type: in vivo, Corvus; conditions: 0.4 g/50.000 seeds with Redigo M or Maxim XL, 0.8 g/50.000 seeds stand-alone, plant stand counts 3 weeks after emergence, listed as denatonium benzoate
Source text: To evaluate the efficacy of different substances as a bird repellent, 25 locations throughout Europe have been identified with a potentially high pressure of bird damage. 17 different substances (DSM RD9103 BRP, Chili extract, Black Cumin oil, Yucca extract, Mentha pulegium extract, Aluminium-Ammonium-sulfate, Hops extract, fat encapsulated plant extracts, alginate encapsulated plant extracts, Tefluthrin, Thiram, Ziram, Methiocarb, yellow colour substance, denatonium benzoate, SatecWFO20, Redigo M, Maxim XL) have been chosen to evaluate differences on feeding behavior of crows. Three chemical references have been included in the trial: Mesurol liquid (Active substance Methiocarb), Korit (Active Substance Ziram) and TMTD (Active Substance Thiram). Mesurol liquid (Methiocarb) was the standard bird repellent in the past, with a European expiry date of the 3rd of April 2020. TMTD (Thiram) can be used until 30th of January 2020. Korit (Ziram) expires in 2021.
Denatonium benzoate has been tested in 2 different concentrations: 0.4 g/50.000 seeds in combination with standard fungicides Redigo M and Maxim XL and 0.8 g/50.000 seeds as a stand-alone. […]
3 weeks after emergence, 9 locations with bird damage have been identified. Plant stand counts have been assessed and summarized.

[2] = test system: wireworm of genus Agriotes; experiment: Wireworm repellent pot assay on corn in greenhouse; assay type: in vivo; conditions: eight days after sowing
Method: Testing took place in pot assays. Per pot four corn seeds were sown (see FIG. 2A). In each pot four wireworm of genus Agriotes were placed in a central cavity of 5 cm depth (see FIG. 2B). […] The seeds in the pots were germinated and seedlings were grown under controlled conditions in greenhouse.
Eight days after sowing the plant biomass (FIG. 3; Table 6) as well as seed damage (FIG. 4A; Table 6) were assessed.

[3] = test system: corn seeds; experiment: Phytotoxicity: germination rate (KF) of treated corn seeds; conditions: for ΔKF: vs no Bitrex
Method: In order to evaluate the phytotoxicity of different corn seed treatments, safety tests were conducted. Germination rates of corn seeds treated with various concentrations of denatonium benzoate (Bitrex®) [in g per unit, where 1 unit is 50.000 seeds] were counted after five days at 25° C. Cold test germination rates (CT) were counted after 7 days at 10° C. and 5 days at 25° C. The treatments were compared to untreated seeds.
KF=germination rates counted after 5 days at 25° C. and CT=cold test germination rates counted after 7 days at 10° C. and 5 days at 25° C.

[4] = corn Amavit, chemical no, Bitrex 0.2 g/u
[5] = corn Amavit, chemical no, Bitrex 0.5 g/u
[6] = corn Amavit, chemical no, Bitrex 1.0 g/u
[7] = corn Amavit, chemical no, Bitrex 2.0 g/u
[8] = corn Amavit, chemical no, Bitrex 5.0 g/u
[9] = corn Amavit, with MaximXL, Bitrex 0.2 g/u
[10] = corn Amavit, with MaximXL, Bitrex 0.5 g/u
[11] = corn Amavit, with MaximXL, Bitrex 1.0 g/u
[12] = corn Amavit, with MaximXL, Bitrex 2.0 g/u
[13] = corn Amavit, with MaximXL, Bitrex 5.0 g/u
[14] = corn Amavit, with RedigoM, Bitrex 0.2 g/u
[15] = corn Amavit, with RedigoM, Bitrex 0.5 g/u
[16] = corn Amavit, with RedigoM, Bitrex 1.0 g/u
[17] = corn Amavit, with RedigoM, Bitrex 2.0 g/u
[18] = corn Amavit, with RedigoM, Bitrex 5.0 g/u
[19] = corn KXB6432, chemical no, Bitrex 0.2 g/u
[20] = corn KXB6432, chemical no, Bitrex 0.5 g/u
[21] = corn KXB6432, chemical no, Bitrex 1.0 g/u
[22] = corn KXB6432, chemical no, Bitrex 2.0 g/u
[23] = corn KXB6432, chemical no, Bitrex 5.0 g/u
[24] = corn KXB6432, with MaximXL, Bitrex 0.2 g/u
[25] = corn KXB6432, with MaximXL, Bitrex 0.5 g/u
[26] = corn KXB6432, with MaximXL, Bitrex 1.0 g/u
[27] = corn KXB6432, with MaximXL, Bitrex 2.0 g/u
[28] = corn KXB6432, with MaximXL, Bitrex 5.0 g/u
[29] = corn KXB6432, with RedigoM, Bitrex 0.2 g/u
[30] = corn KXB6432, with RedigoM, Bitrex 0.5 g/u
[31] = corn KXB6432, with RedigoM, Bitrex 1.0 g/u
[32] = corn KXB6432, with RedigoM, Bitrex 2.0 g/u
[33] = corn KXB6432, with RedigoM, Bitrex 5.0 g/u
[34] = ø of varieties and chemicals, Bitrex 0.2 g/u
[35] = ø of varieties and chemicals, Bitrex 0.5 g/u
[36] = ø of varieties and chemicals, Bitrex 1.0 g/u
[37] = ø of varieties and chemicals, Bitrex 2.0 g/u
[38] = ø of varieties and chemicals, Bitrex 5.0 g/u
[39] = ø of varieties, chemical no, Bitrex 0.2 g/u
[40] = ø of varieties, chemical no, Bitrex 0.5 g/u
[41] = ø of varieties, chemical no, Bitrex 1.0 g/u
[42] = ø of varieties, chemical no, Bitrex 2.0 g/u
[43] = ø of varieties, chemical no, Bitrex 5.0 g/u
[44] = ø of varieties, with MaximXL, Bitrex 0.2 g/u
[45] = ø of varieties, with MaximXL, Bitrex 0.5 g/u
[46] = ø of varieties, with MaximXL, Bitrex 1.0 g/u
[47] = ø of varieties, with MaximXL, Bitrex 2.0 g/u
[48] = ø of varieties, with MaximXL, Bitrex 5.0 g/u
[49] = ø of varieties, with RedigoM, Bitrex 0.2 g/u
[50] = ø of varieties, with RedigoM, Bitrex 0.5 g/u
[51] = ø of varieties, with RedigoM, Bitrex 1.0 g/u
[52] = ø of varieties, with RedigoM, Bitrex 2.0 g/u
[53] = ø of varieties, with RedigoM, Bitrex 5.0 g/u

CC[N+](CC)(CC(=O)Nc1c(C)cccc1C)Cc1ccccc1.O=C([O-])c1ccccc1 [Bitrex, N-Benzyl-2-(2,6-dimethylanilino)-N, N-diethyl-2-oxoethan-1-aminium benzoate]
efficiency as corvid repellent for corn [1]: excellent effect; also recorded: comparable or even better than the best bird repellents like Thiram, Korit and Mesurol | biomass of plantlets compared with controls [2]: comparable or even more biomass than control plants without wireworm infestations | KF germination rate, 5 days at 25° C. [3, 4]: 98.0% | KF germination rate, 5 days at 25° C. [3, 5]: 96.5% | KF germination rate, 5 days at 25° C. [3, 6]: 97.5% | KF germination rate, 5 days at 25° C. [3, 7]: 97.0% | KF germination rate, 5 days at 25° C. [3, 8]: 98.0% | KF germination rate, 5 days at 25° C. [3, 9]: 98.0% | KF germination rate, 5 days at 25° C. [3, 10]: 98.0% | KF germination rate, 5 days at 25° C. [3, 11]: 96.5% | KF germination rate, 5 days at 25° C. [3, 12]: 95.5% | KF germination rate, 5 days at 25° C. [3, 13]: 97.5% | KF germination rate, 5 days at 25° C. [3, 14]: 100.0% | KF germination rate, 5 days at 25° C. [3, 15]: 97.5% | KF germination rate, 5 days at 25° C. [3, 16]: 96.0% | KF germination rate, 5 days at 25° C. [3, 17]: 96.5% | KF germination rate, 5 days at 25° C. [3, 18]: 99.5% | KF germination rate, 5 days at 25° C. [3, 19]: 92.5% | KF germination rate, 5 days at 25° C. [3, 20]: 96.5% | KF germination rate, 5 days at 25° C. [3, 21]: 96.5% | KF germination rate, 5 days at 25° C. [3, 22]: 96.0% | KF germination rate, 5 days at 25° C. [3, 23]: 95.5% | KF germination rate, 5 days at 25° C. [3, 24]: 98.5% | KF germination rate, 5 days at 25° C. [3, 25]: 99.0% | KF germination rate, 5 days at 25° C. [3, 26]: 97.5% | KF germination rate, 5 days at 25° C. [3, 27]: 98.0% | KF germination rate, 5 days at 25° C. [3, 28]: 97.5% | KF germination rate, 5 days at 25° C. [3, 29]: 94.5% | KF germination rate, 5 days at 25° C. [3, 30]: 95.5% | KF germination rate, 5 days at 25° C. [3, 31]: 96.0% | KF germination rate, 5 days at 25° C. [3, 32]: 95.5% | KF germination rate, 5 days at 25° C. [3, 33]: 97.0% | ΔKF [3, 4]: 0.0% | ΔKF [3, 5]: −1.5% | ΔKF [3, 6]: −0.5% | ΔKF [3, 7]: −1.0% | ΔKF [3, 8]: 0.0% | ΔKF [3, 9]: 1.5% | ΔKF [3, 10]: 1.5% | ΔKF [3, 11]: 0.0% | ΔKF [3, 12]: −1.0% | ΔKF [3, 13]: 1.0% | ΔKF [3, 14]: 2.0% | ΔKF [3, 15]: −0.5% | ΔKF [3, 16]: −2.0% | ΔKF [3, 17]: −1.5% | ΔKF [3, 18]: 1.5% | ΔKF [3, 19]: −2.0% | ΔKF [3, 20]: 2.0% | ΔKF [3, 21]: 2.0% | ΔKF [3, 22]: 1.5% | ΔKF [3, 23]: 1.0% | ΔKF [3, 24]: 0.0% | ΔKF [3, 25]: 0.5% | ΔKF [3, 26]: −1.0% | ΔKF [3, 27]: −0.5% | ΔKF [3, 28]: −1.0% | ΔKF [3, 29]: 0.0% | ΔKF [3, 30]: 1.0% | ΔKF [3, 31]: 1.5% | ΔKF [3, 32]: 1.0% | ΔKF [3, 33]: 2.5% | ΔKF [3, 34]: 0.3% | ΔKF [3, 35]: 0.5% | ΔKF [3, 36]: 0.0% | ΔKF [3, 37]: −0.2% | ΔKF [3, 38]: 0.8% | ΔKF [3, 39]: −1.0% | ΔKF [3, 40]: 0.3% | ΔKF [3, 41]: 0.8% | ΔKF [3, 42]: 0.3% | ΔKF [3, 43]: 0.5% | ΔKF [3, 44]: 0.7% | ΔKF [3, 45]: 1.0% | ΔKF [3, 46]: −0.5% | ΔKF [3, 47]: −0.7% | ΔKF [3, 48]: 0.0% | ΔKF [3, 49]: 1.0% | ΔKF [3, 50]: 0.3% | ΔKF [3, 51]: −0.2% | ΔKF [3, 52]: −0.2% | ΔKF [3, 53]: 2.0% | KF germination rate, 5 days at 25° C. [3, 34]: 96.9% | KF germination rate, 5 days at 25° C. [3, 35]: 97.2% | KF germination rate, 5 days at 25° C. [3, 36]: 96.7% | KF germination rate, 5 days at 25° C. [3, 37]: 96.4% | KF germination rate, 5 days at 25° C. [3, 38]: 97.5% | KF germination rate, 5 days at 25° C. [3, 39]: 95.3% | KF germination rate, 5 days at 25° C. [3, 40]: 96.5% | KF germination rate, 5 days at 25° C. [3, 41]: 97.0% | KF germination rate, 5 days at 25° C. [3, 42]: 96.5% | KF germination rate, 5 days at 25° C. [3, 43]: 96.8% | KF germination rate, 5 days at 25° C. [3, 44]: 98.3% | KF germination rate, 5 days at 25° C. [3, 45]: 98.5% | KF germination rate, 5 days at 25° C. [3, 46]: 97.0% | KF germination rate, 5 days at 25° C. [3, 47]: 96.8% | KF germination rate, 5 days at 25° C. [3, 48]: 97.5% | KF germination rate, 5 days at 25° C. [3, 49]: 97.3% | KF germination rate, 5 days at 25° C. [3, 50]: 96.5% | KF germination rate, 5 days at 25° C. [3, 51]: 96.0% | KF germination rate, 5 days at 25° C. [3, 52]: 96.0% | KF germination rate, 5 days at 25° C. [3, 53]: 98.3%
